According to patent publication US7138428B2, “Compounds isolated from gamboge resin having activity in inhibiting the growth of tumor/cancer cells and pharmaceutical compositions comprising the same” (Taiwan Sunpan Biotechnology Development Company, Ltd., priority 2004, dated 2006):

Columns and labels:
[1] = tested on: normal human umbilical venal epithelial cell (HUVEC)
From the text: (§1) The cancer cell growth inhibition test was primarily used to detect the effect of a candidate drug on cancer cell proliferation. The working principle involved therein is the ability of viable cells to shift alamarBlue (Biosource, USA) from its originally non-fluorescent oxidized state to a reduced form (fluorescent, red) having fluorescence via metabolic reaction. According to the fluorescent data result generated by the alamarBlue reagent thus obtained, the proliferation of the viable cells and cell activity can be quantified for detection.
(§2) In this experiment, the assay concentrations of the candidate drug were set to be 0.01, 0.1, 1, 10, and 100 μg/ml, and the following cell lines were used: 6 human cancer cells MCF-7 (breast cancer), HT-29 (colon cancer), HL-60 (leukemia), HepG2 (liver cancer), A549 (lung cancer), and U937 (lymphoma cancer), and a normal human umbilical venal epithelial cell (HUVEC).
(§3) In order to further understand the bioactivity of the products TSB-0 to TSB-8 of this invention when they are used in combination, mixture formulations TSB-9, TSB-10, TSB-11, TSB-12 and TSB-13 were prepared according to Table 4 below.

HT-29 (colon cancer) = assay: cells; conditions: for IC50 (50% cell growth inhibition concentration) / LC50 (50% cell destroying lethal concentration): HT-29
From the text: as §1, §2, §3

A549 (lung cancer) = assay: cells; conditions: for IC50 (50% cell growth inhibition concentration) / LC50 (50% cell destroying lethal concentration): A549
From the text: as §1, §2, §3

U937 (lymphoma cancer) = assay: cells; conditions: for IC50 (50% cell growth inhibition concentration) / LC50 (50% cell destroying lethal concentration): U937
From the text: as §1, §2, §3

HL-60 (leukemia) = assay: cells; conditions: for IC50 (50% cell growth inhibition concentration) / LC50 (50% cell destroying lethal concentration): HL-60
From the text: as §1, §2, §3

MCF-7 (breast cancer) = assay: cells; conditions: for IC50 (50% cell growth inhibition concentration) / LC50 (50% cell destroying lethal concentration): MCF-7
From the text: as §1, §2, §3

HepG2 (liver cancer) = assay: cells; conditions: for IC50 (50% cell growth inhibition concentration) / LC50 (50% cell destroying lethal concentration): HepG2
From the text: as §1, §2, §3

tumor/cancer cells = assay: in vitro anti-cancer tests, overall statements; assay type: cell-based, human; conditions: summary of in vitro results
[2] = body weights of tumor-bearing test animals; assay type: in vivo, mice; conditions: 2 mg/kg × 5
Procedure: Mixture formulation TSB-9 was further subjected to an animal test, in which female mice (6–8 weeks old, weighing 20–22 grams) originally from C.B-17/Icr background and having Severe Combined Immune Deficiency (SCID) were used.
Human breast cancer cells MCF-7 (ATCC HTB-22) (1×10^7 cells/0.2 ml) were implanted subcutaneously into the dorsal side of the mice, and 50 μg/mouse of estradiol benzoate (Sigma, USA) was injected subcutaneously into the mice weekly as supplement for a total of 4 weeks. When the tumor growth reached ≧5 mm in diameter (that very day was denoted as day 1), tumor-bearing nude mice were randomly divided into 4 groups (6 mice in each group).
Mixture formulation TSB-9 was dissolved in 10% DMSO, and was administered orally to the mice every day at two dosages 40 mg/kg and 80 mg/kg, respectively, for a total of 21 consecutive days. […] This treatment group served as a positive control.
Measurements were taken once every 4 days during the experiment periods, and were recorded.

SMILES | IC50 (50% cell growth inhibition concentration) [1] [µg/mL] | LC50 (50% cell destroying lethal concentration) [1] [µg/mL] | IC50 (50% cell growth inhibition concentration) (HT-29 (colon cancer)) [µg/mL] | LC50 (50% cell destroying lethal concentration) (HT-29 (colon cancer)) [µg/mL] | IC50 (50% cell growth inhibition concentration) (A549 (lung cancer)) [µg/mL] | LC50 (50% cell destroying lethal concentration) (A549 (lung cancer)) [µg/mL] | IC50 (50% cell growth inhibition concentration) (U937 (lymphoma cancer)) [µg/mL] | LC50 (50% cell destroying lethal concentration) (U937 (lymphoma cancer)) [µg/mL] | IC50 (50% cell growth inhibition concentration) (HL-60 (leukemia)) [µg/mL] | LC50 (50% cell destroying lethal concentration) (HL-60 (leukemia)) [µg/mL] | IC50 (50% cell growth inhibition concentration) (MCF-7 (breast cancer)) [µg/mL] | LC50 (50% cell destroying lethal concentration) (MCF-7 (breast cancer)) [µg/mL] | IC50 (50% cell growth inhibition concentration) (HepG2 (liver cancer)) [µg/mL] | LC50 (50% cell destroying lethal concentration) (HepG2 (liver cancer)) [µg/mL] | further results
CC(C)=CCC[C@]1(C)C=Cc2c(O)c3c(c(CC=C(C)C)c2O1)O[C@]12C(=C[C@@H]4C[C@H]1C(C)(C)O[C@@]2(C/C=C(/C)C(=O)O)C4=O)C3=O [TSB-5, gambogic acid] | 0.87 | 3.6 | 4.5 | 7.1 | 0.8 | 2.9 | 0.65 | 3.1 | 0.50 | 5.2 | 0.83 | 2.7 | 0.83 | 2.7 | –
C=C(C)[C@@H]1CC[C@]2(CO)CC[C@]3(C)[C@H](CC[C@@H]4[C@@]5(C)CC[C@H](O)C(C)(C)[C@@H]5CC[C@]43C)[C@@H]12 [TSB-0, betulin] | – | – | – | – | – | – | – | – | – | – | – | – | – | – | effect of inhibiting tumor/cancer cell growth (in words) (tumor/cancer cells): may not be as effective as products TSB-2 to TSB-8
CC(C)=CCc1c2c(c(O)c3c1OC14C(=CC5CC1C(C)(C)OC4(C/C=C(\C)CO)C5=O)C3=O)C=CC(C)(C)O2 (centres unmarked) [TSB-6, isomorellinol] | 1.5 | 9.3 | 5.2 | 8.5 | 2.0 | 9.6 | 1.3 | 3.8 | 1.4 | 6.2 | 0.90 | 5.8 | 1.2 | 3.0 | –
CO[C@@]12[C@H](COC(N)=O)C3=C(C(=O)C(C)=C(N)C3=O)N1C[C@@H]1N[C@@H]12 [mitomycin] | – | – | – | – | – | – | – | – | – | – | – | – | – | – | Weight (g) (mean ± SEM) ([2]; Day 1): 22.5 ± 0.6 g; Weight (g) (mean ± SEM) ([2]; Day 5): 20.8 ± 0.3 g; Weight (g) (mean ± SEM) ([2]; Day 9): 19.3 ± 0.4 g; Weight (g) (mean ± SEM) ([2]; Day 13): 19.2 ± 0.3 g; Weight (g) (mean ± SEM) ([2]; Day 17): 18.5 ± 0.2 g; Weight (g) (mean ± SEM) ([2]; Day 21): 17.5 ± 0.2 g; Weight (g) (mean ± SEM) ([2]; Day 25): 16.7 ± 0.2 g; Weight (g) (mean ± SEM) ([2]; Day 29): 16.7 ± 0.4 g
CC(C)=CCc1c2c(c(O)c3c1O[C@@]14C(=C[C@H]5CC1C(C)(C)O[C@]4(CC=C(C)C)C5=O)C3=O)C=CC(C)(C)O2 [TSB-8, desoxymorellin] | 2.8 | 40 | 6.7 | 69 | 4.8 | 56 | 6.2 | >100 | 6.5 | >100 | 5.3 | 83 | 3.9 | 31 | –
CC(C)=CCc1c2c(c(O)c3c1O[C@]14C(=C[C@@H]5C[C@H]1C(C)(C)O[C@@]4(C/C=C(/C)C(=O)O)C5=O)C3=O)C=CC(C)(C)O2 [TSB-7, morellic acid] | 0.88 | 4.8 | 2.8 | 7.2 | 0.76 | 3.4 | 1.6 | 4.8 | 1.2 | 5.6 | 0.98 | 6.2 | 1.7 | 3.9 | –
C=C(C)[C@@H]1CC[C@]2(C(=O)O)CC[C@]3(C)[C@H](CC[C@@H]4[C@@]5(C)CC[C@H](O)C(C)(C)[C@@H]5CC[C@]43C)[C@@H]12 [TSB-1, betulinic acid] | – | – | – | – | – | – | – | – | – | – | – | – | – | – | effect of inhibiting tumor/cancer cell growth (in words) (tumor/cancer cells): may not be as effective as products TSB-2 to TSB-8
CC(C)=CCC[C@]1(C)C=Cc2c(O)c3c(c(CC=C(C)C)c2O1)O[C@]12C(=C[C@@H]4C[C@H]1C(C)(C)O[C@@]2(C/C=C(\C)C(=O)O)C4=O)C3=O [TSB-3, isogambogic acid] | 1.1 | 5.2 | 6.4 | 8.8 | 0.88 | 4.8 | 0.82 | 3.1 | 0.97 | 4.6 | 1.6 | 4.3 | 1.2 | 1.9 | –
CC(C)=CCc1c2c(c(O)c3c1OC14C(=CC5CC1C(C)(C)OC4(C/C=C(\C)C(=O)O)C5=O)C3=O)C=CC(C)(C)O2 (centres unmarked) [TSB-2, isomorellic acid] | 1.7 | 22 | 6.9 | 12 | 1.3 | 4.6 | 1.6 | 6.1 | 2.3 | 43 | 9.0 | 24 | 6.4 | 33 | –
CC(C)=CCc1c(O)cc(O)c2c(=O)c3cc4c(c(O)c3oc12)OC(C)(C)C=C4 [TSB-4, 7,9,12-trihydroxy-2,2-dimethyl-10-(3-methyl-but-2-enyl)-2H-pyrano[3,2-b]xanthen-6-one] | – | 21 | – | – | – | – | – | – | – | – | – | – | – | – | CC50 (HT-29 (colon cancer); Homo sapiens, HT-29, read-out: LC50 (50% cell destroying lethal concentration)): 59 µg/mL; CC50 (A549 (lung cancer); Homo sapiens, A549, read-out: LC50 (50% cell destroying lethal concentration)): 21 µg/mL; CC50 (U937 (lymphoma cancer); Homo sapiens, U-937, read-out: LC50 (50% cell destroying lethal concentration)): 28 µg/mL; CC50 (HL-60 (leukemia); Homo sapiens, HL-60, read-out: LC50 (50% cell destroying lethal concentration)): 42 µg/mL; CC50 (MCF-7 (breast cancer); Homo sapiens, MCF7, read-out: LC50 (50% cell destroying lethal concentration)): 40 µg/mL; CC50 (HepG2 (liver cancer); Homo sapiens, HepG2, read-out: LC50 (50% cell destroying lethal concentration)): 24 µg/mL
